In the experiment the target is T1, Human GLP-1 receptor stably expressing cells (hGLP-1R/CHO-K1 cells) (Homo sapiens, UniProt P43220).
T1 construct: expressed in transfected cells
In words: Measurement of GLP-1 receptor agonist activity (cAMP assay). The note with it: for Emax: CHO-K1, maximum effect, cAMP with 2 nM human GLP-1 (7-36) = 100%, DMSO only = 0%, read-out: Emax; for EC50: increase in cAMP concentration in hGLP-1R/CHO-K1 cells, 37° C. 1 hour. The format is cell-based. The method, boiled down:
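hGLP-1R/CHO-K1 cells (cryopreserved) incubated with compound and forskolin in HBSS with 0.1% BSA, IBMX and RO20-1724, 1 h at 37° C; cAMP read by HTRF. EC50 and Emax from cAMP rise, normalised to 2 nM human GLP-1 (7-36) (100%) and DMSO (0%).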
(In general: Changes in cAMP serve as a functional read-out for many G protein-coupled receptors.)

The text below walks through data of patent US20260097037A1, “FUSED RING COMPOUND HAVING GLP-1 RECEPTOR AGONIST EFFECT” (Shionogi & Co., Ltd., priority 2022, published 2026).

T1 sequence (P43220 24-463): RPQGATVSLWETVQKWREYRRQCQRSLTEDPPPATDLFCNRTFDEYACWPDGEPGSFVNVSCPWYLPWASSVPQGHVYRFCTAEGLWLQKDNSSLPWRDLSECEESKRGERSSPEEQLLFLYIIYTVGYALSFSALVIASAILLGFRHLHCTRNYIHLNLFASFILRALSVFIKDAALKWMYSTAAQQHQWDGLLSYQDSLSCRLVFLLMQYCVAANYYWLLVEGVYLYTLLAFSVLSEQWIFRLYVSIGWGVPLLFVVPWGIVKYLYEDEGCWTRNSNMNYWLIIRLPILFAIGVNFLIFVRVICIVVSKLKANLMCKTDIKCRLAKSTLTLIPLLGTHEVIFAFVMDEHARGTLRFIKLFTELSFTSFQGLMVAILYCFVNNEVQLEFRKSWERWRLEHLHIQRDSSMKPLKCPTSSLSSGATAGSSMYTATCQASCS

As for `C[C@H]1c2nc(OCc3ccc(Cl)cc3Cl)c(C(F)F)cc2CCN1Cc1nc2ccc(C(=O)O)nc2n1C[C@@H]1CCO1` [Compound I-100], the Emax (in general, the greatest response seen or fitted, relative to the assay's reference) was 115% and the EC50 (in general, the concentration at which the effect is half-maximal) worked out at 580 pM.

Consider `C[C@H]1c2nc(OCc3c(F)cc(Cl)cc3F)c(C(F)F)cc2CCN1Cc1nc2ccc(C(=O)O)nc2n1C[C@@H]1CCO1` [Compound I-101], for which the Emax turned out to be 108% and the EC50 worked out at 469 pM.

Consider `C[C@H]1c2nc(OCc3cc(F)c(Cl)cc3F)c(C(F)F)cc2CCN1Cc1nc2ccc(C(=O)O)nc2n1C[C@@H]1CCO1` [Compound I-102], for which the Emax was 117% and it took 469 pM to reach a half-maximal effect (EC50).

Turning to `C[C@H]1c2nc(OCc3ccc(C#N)cc3F)c(C(F)F)cc2CCN1Cc1nc2ccc(C(=O)O)nc2n1C[C@@H]1CCO1` [Compound I-103], the Emax is 97% and the EC50 turned out to be 558 pM.

As to `O=C(O)c1ccc2nc(C3CC34CCc3cc(C(F)(F)F)c(OCc5ccc(Cl)cc5F)cc3C4)n(C[C@@H]3CCO3)c2c1` (stereo partly shown) [Compound I-104], the Emax was 75.3% and the concentration giving a half-maximal response (EC50) came out at 514000 pM.

Regarding `C[C@H]1c2nc(OCc3ncc(Cl)cc3F)c(C(F)(F)F)cc2CCN1Cc1nc2ccc(C(=O)O)cc2n1C[C@@H]1CCO1` [Compound I-105], the Emax was 110% and the response was half-maximal at 314 pM (EC50).

Turning to `C[C@H]1c2nc(OCc3ncc(Cl)cc3Cl)c(C(F)(F)F)cc2CCN1Cc1nc2ccc(C(=O)O)cc2n1C[C@@H]1CCO1` [Compound I-106], the Emax was determined as 112% and a half-maximal response (EC50) required 371 pM.

Turning to `C[C@H]1c2nc(OCc3c(F)cc(C#N)cc3F)c(C(F)(F)F)cc2CCN1Cc1nc2ccc(C(=O)O)cc2n1C[C@@H]1CCO1` [Compound I-107], the maximum response (Emax) worked out at 111% and the EC50 amounted to 106 pM.

Take `C[C@H]1c2nc(OCc3ccc(Cl)cc3F)c(C(F)F)cc2CCN1Cc1nc2c(F)cc(C(=O)O)cc2n1C[C@@H]1CCO1` [Compound I-108]: the Emax is 111% and the EC50 is 38 pM.

As for `C[C@H]1c2nc(OCc3ccc(Cl)cc3)c(C(F)F)cc2CCN1Cc1nc2c(F)cc(C(=O)O)cc2n1C[C@@H]1CCO1` [Compound I-109], the maximal response (Emax) amounted to 112% and a half-maximal response (EC50) required 101 pM.

For `C[C@H]1c2nc(OCc3ccc(F)cc3F)c(C(F)F)cc2CCN1Cc1nc2c(F)cc(C(=O)O)cc2n1C[C@@H]1CCO1` [Compound I-110], the Emax is 113% and the EC50 amounted to 70.6 pM.

As to `C[C@H]1c2nc(OCc3ccc(Cl)cc3Cl)c(C(F)F)cc2CCN1Cc1nc2c(F)cc(C(=O)O)cc2n1C[C@@H]1CCO1` [Compound I-111], the Emax is 110% and the EC50 was found to be 68.3 pM.

`C[C@H]1c2nc(OCc3ccc(Cl)cn3)c(C(F)F)cc2CCN1Cc1nc2c(F)cc(C(=O)O)cc2n1C[C@@H]1CCO1` [Compound I-112]: the Emax is 110% and the EC50 is 191 pM.

In the case of `C[C@H]1c2nc(OCc3c(F)cc(Cl)cc3F)c(C(F)F)cc2CCN1Cc1nc2c(F)cc(C(=O)O)cc2n1C[C@@H]1CCO1` [Compound I-113], the Emax came out at 116% and the response was half-maximal at 33.1 pM (EC50).

On to `C[C@H]1c2nc(OCc3cc(F)c(Cl)cc3F)c(C(F)F)cc2CCN1Cc1nc2c(F)cc(C(=O)O)cc2n1C[C@@H]1CCO1` [Compound I-114], for which the Emax amounted to 113% and the EC50 was determined as 60.4 pM.

With `C[C@H]1c2nc(OCc3ccc(C#N)cc3F)c(C(F)F)cc2CCN1Cc1nc2c(F)cc(C(=O)O)cc2n1C[C@@H]1CCO1` [Compound I-115], the Emax was 113% and the response was half-maximal at 43 pM (EC50).

For `C[C@H]1c2nc(OCc3ccc(Cl)cc3F)c(C(F)F)cc2CCN1Cc1nc2ccc(C(=O)O)c(F)c2n1C[C@@H]1CCO1` [Compound I-116], the Emax came to 122% and the response was half-maximal at 46.3 pM (EC50).

Regarding `C[C@H]1c2nc(OCc3ccc(F)cc3)c(C(F)F)cc2CCN1Cc1nc2ccc(C(=O)O)c(F)c2n1C[C@@H]1CCO1` [Compound I-117], the Emax came out at 118% and a half-maximal response (EC50) required 372 pM.

As to `C[C@H]1c2nc(OCc3ccc(Cl)cc3)c(C(F)F)cc2CCN1Cc1nc2ccc(C(=O)O)c(F)c2n1C[C@@H]1CCO1` [Compound I-118], the Emax was found to be 113% and a half-maximal response (EC50) required 105 pM.

For the molecule `Cc1ccc(COc2nc3c(cc2C(F)F)CCN(Cc2nc4ccc(C(=O)O)c(F)c4n2C[C@@H]2CCO2)[C@H]3C)cc1` [Compound I-119], the Emax came out at 120% and the EC50 was 148 pM.

On to `C[C@H]1c2nc(OCc3ccccc3Cl)c(C(F)F)cc2CCN1Cc1nc2ccc(C(=O)O)c(F)c2n1C[C@@H]1CCO1` [Compound I-120], for which the Emax came to 121% and the midpoint of the response, the EC50, lay at 481 pM.

Consider `C[C@H]1c2nc(OCc3ccc(F)cc3F)c(C(F)F)cc2CCN1Cc1nc2ccc(C(=O)O)c(F)c2n1C[C@@H]1CCO1` [Compound I-121], for which the Emax stood at 119% and it took 148 pM to reach a half-maximal effect (EC50).

Turning to `C[C@H]1c2nc(OCc3ccc(Cl)cc3Cl)c(C(F)F)cc2CCN1Cc1nc2ccc(C(=O)O)c(F)c2n1C[C@@H]1CCO1` [Compound I-122], the Emax amounted to 112% and the EC50 was found to be 73 pM.

Consider `C[C@H]1c2nc(OCc3ccc(Cl)cn3)c(C(F)F)cc2CCN1Cc1nc2ccc(C(=O)O)c(F)c2n1C[C@@H]1CCO1` [Compound I-123], for which the Emax was 127% and the EC50 turned out to be 275 pM.

On to `C[C@H]1c2nc(OCc3c(F)cc(Cl)cc3F)c(C(F)F)cc2CCN1Cc1nc2ccc(C(=O)O)c(F)c2n1C[C@@H]1CCO1` [Compound I-124], for which the Emax was determined as 115% and the EC50 is 38 pM.

For the molecule `C[C@H]1c2nc(OCc3c(F)cc(F)cc3F)c(C(F)F)cc2CCN1Cc1nc2ccc(C(=O)O)c(F)c2n1C[C@@H]1CCO1` [Compound I-125], the Emax turned out to be 123% and a half-maximal effect (EC50) was put at 85.6 pM.

As for `C[C@H]1c2nc(OCc3cc(F)c(Cl)cc3F)c(C(F)F)cc2CCN1Cc1nc2ccc(C(=O)O)c(F)c2n1C[C@@H]1CCO1` [Compound I-126], the Emax stood at 111% and the response was half-maximal at 63.5 pM (EC50).

Turning to `C[C@H]1c2nc(OCc3ccc(C#N)cc3F)c(C(F)F)cc2CCN1Cc1nc2ccc(C(=O)O)c(F)c2n1C[C@@H]1CCO1` [Compound I-127], the Emax was determined as 121% and the EC50 came out at 104 pM.

Turning to `COc1cc(C(=O)O)cc2c1nc(CN1CCc3cc(C(F)F)c(OCc4ccc(Cl)cc4F)nc3[C@@H]1C)n2C[C@@H]1CCO1` [Compound I-128], the Emax was 128% and the EC50 came to 12.2 pM.

Turning to `COc1cc(C(=O)O)cc2c1nc(CN1CCc3cc(C(F)F)c(OCc4ccc(Cl)cc4)nc3[C@@H]1C)n2C[C@@H]1CCO1` [Compound I-129], the Emax amounted to 131% and the EC50 is 30.3 pM.

For `COc1cc(C(=O)O)cc2c1nc(CN1CCc3cc(C(F)F)c(OCc4ccccc4Cl)nc3[C@@H]1C)n2C[C@@H]1CCO1` [Compound I-130], the Emax is 141% and the EC50 came to 108 pM.

Turning to `COc1cc(C(=O)O)cc2c1nc(CN1CCc3cc(C(F)F)c(OCc4ccc(F)cc4F)nc3[C@@H]1C)n2C[C@@H]1CCO1` [Compound I-131], the maximal response (Emax) came out at 123% and the EC50 was found to be 29.9 pM.

For the molecule `COc1cc(C(=O)O)cc2c1nc(CN1CCc3cc(C(F)F)c(OCc4ccc(Cl)cc4Cl)nc3[C@@H]1C)n2C[C@@H]1CCO1` [Compound I-132], the Emax was determined as 127% and a half-maximal effect (EC50) was put at 16.2 pM.

Take `COc1cc(C(=O)O)cc2c1nc(CN1CCc3cc(C(F)F)c(OCc4ccc(Cl)cn4)nc3[C@@H]1C)n2C[C@@H]1CCO1` [Compound I-133]: the Emax is 122% and the midpoint of the response, the EC50, lay at 59.1 pM.

Consider `COc1cc(C(=O)O)cc2c1nc(CN1CCc3cc(C(F)F)c(OCc4c(F)cc(Cl)cc4F)nc3[C@@H]1C)n2C[C@@H]1CCO1` [Compound I-134], for which the Emax came out at 128% and the EC50 turned out to be 10.4 pM.

For `COc1cc(C(=O)O)cc2c1nc(CN1CCc3cc(C(F)F)c(OCc4ccc(C#N)cc4F)nc3[C@@H]1C)n2C[C@@H]1CCO1` [Compound I-135], the Emax worked out at 134% and it took 16.5 pM to reach a half-maximal effect (EC50).

On to `C[C@H]1c2nc(OCc3ccc(Cl)cc3F)c(C#N)cc2CCN1Cc1nc2ccc(C(=O)O)cc2n1C[C@@H]1CCO1` [Compound I-136], for which the Emax stood at 106% and a half-maximal response (EC50) required 339 pM.

Regarding `C[C@H]1c2nc(OCc3ccc(Cl)cc3F)c(C#N)cc2CCN1Cc1nc2ccc(C(=O)O)c(F)c2n1C[C@@H]1CCO1` [Compound I-137], the Emax turned out to be 136% and a half-maximal effect (EC50) was put at 224 pM.

`C[C@H]1c2nc(OCc3ccc(Cl)cc3F)c(C#N)cc2CCN1Cc1nc2c(F)cc(C(=O)O)cc2n1C[C@@H]1CCO1` [Compound I-138]: the maximal response (Emax) stood at 128% and the EC50 came to 119 pM.

Take `COc1cc(C(=O)O)cc2c1nc(CN1CCc3cc(C#N)c(OCc4ccc(Cl)cc4F)nc3[C@@H]1C)n2C[C@@H]1CCO1` [Compound I-139]: the Emax amounted to 118% and the midpoint of the response, the EC50, lay at 32.6 pM.

Take `C[C@H]1c2nc(OCc3cnn(C)n3)c(C(F)(F)F)cc2CCN1Cc1nc2ccc(C(=O)O)cc2n1C[C@@H]1CCO1` [Compound I-142]: the Emax stood at 117% and the EC50 worked out at 7330 pM.

In the case of `C[C@H]1c2nc(OCc3ccc(C#N)c4ccoc34)c(C(F)(F)F)cc2CCN1Cc1nc2ccc(C(=O)O)cc2n1C[C@@H]1CCO1` [Compound I-143], the Emax amounted to 129% and the midpoint of the response, the EC50, lay at 99.9 pM.

For the molecule `COc1cc(C(=O)O)cc2c1nc(CN1CCc3cc(C#N)c(OCc4ccc(Cl)cc4)nc3[C@@H]1C)n2C[C@@H]1CCO1` [Compound I-144], the Emax amounted to 124% and the EC50 was determined as 62.5 pM.

Regarding `COc1cc(C(=O)O)cc2c1nc(CN1CCc3cc(C#N)c(OCc4ccccc4Cl)nc3[C@@H]1C)n2C[C@@H]1CCO1` [Compound I-145], the Emax came to 109% and a half-maximal effect (EC50) was put at 121 pM.
